How the values were obtained:
Test in all cases: cells
A549 = conditions: Homo sapiens, A549, 72 h
Description: Antiproliferative activity against human A549 cells after 72 hrs by MTT assay

HCT-15 = conditions: Homo sapiens, HCT-15, 72 h
Description: Antiproliferative activity against human HCT15 cells after 72 hrs by MTT assay

HCT-116 = conditions: Homo sapiens, HCT-116, 72 h
Description: Antiproliferative activity against human HCT116 cells after 72 hrs by MTT assay

IC50 (A549)	IC50 (HCT-15)	IC50 (HCT-116)	Compound
78.7 nM	365 nM	114 nM	Cc1cc(O)c(-c2ccc([C@@H](C)CN)cc2)c2c1[nH]c(=O)c1ccccc12
470 nM	397 nM	469 nM	Cc1cc(O)c(-c2ccc([C@@H](C)N(C)C)cc2)c2c1[nH]c(=O)c1c(C)cccc12
> 1000 nM		> 1000 nM	COc1cc(C)c2[nH]c(=O)c3ccccc3c2c1-c1ccc([C@@H](C)N)cc1
554 nM		534 nM	C[C@@H](CN(C)C)c1ccc(-c2c(O)cc(Cl)c3[nH]c(=O)c4c(O)cccc4c23)cc1
25.9 nM	301 nM	75.8 nM	Cc1cc(O)c(-c2ccc([C@@H](C)CN)cc2)c2c1[nH]c(=O)c1c(C)cccc12
113 nM	76 nM	215 nM	Cc1cc(O)c(-c2ccc([C@@H](C)CN(C)C)cc2)c2c1[nH]c(=O)c1c(O)cccc12
103 nM		372 nM	C[C@@H](CN)c1ccc(-c2c(O)cc(Cl)c3[nH]c(=O)c4c(O)cccc4c23)cc1
516 nM		> 1000 nM	C[C@H](c1ccc(-c2c(O)cc(Cl)c3[nH]c(=O)c4c(O)cccc4c23)cc1)N(C)C
466 nM	501 nM	385 nM	Cc1ccc2c(=O)[nH]c3c(C)cc(O)c(-c4ccc([C@@H](C)CN(C)C)cc4)c3c2c1
> 1000 nM	309 nM	636 nM	C[C@@H](CN)c1ccc(-c2c(O)cc(Cl)c3[nH]c(=O)c4ccccc4c23)cc1
600 nM	801 nM	> 1000 nM	C[C@@H](N)c1ccc(-c2c(O)cc(Cl)c3[nH]c(=O)c4ccccc4c23)cc1
> 1000 nM		> 1000 nM	Cc1cc(O)c(-c2ccc(C3(CN(C)C)CC3)cc2)c2c1[nH]c(=O)c1c(N(C)C)cccc12
406 nM		141 nM	Cc1cc(O)c(-c2ccc(C3(CN(C)C)CC3)cc2)c2c1[nH]c(=O)c1c(O)cccc12
287 nM	337 nM	419 nM	Cc1cc(O)c(-c2ccc([C@@H](C)CN(C)C)cc2)c2c1[nH]c(=O)c1c(C)cccc12
898 nM		> 1000 nM	CN(C)CC1(c2ccc(-c3c(O)cc(Cl)c4[nH]c(=O)c5c(O)cccc5c34)cc2)CC1
264 nM	600 nM	299 nM	Cc1cc(O)c(-c2ccc([C@@H](C)CN(C)C)cc2)c2c1[nH]c(=O)c1ccccc12
250 nM		314 nM	Cc1cc(O)c(-c2ccc([C@@H](C)N(C)C)cc2)c2c1[nH]c(=O)c1ccccc12
360 nM	257 nM	468 nM	Cc1cc(O)c(-c2ccc([C@@H](C)N)cc2)c2c1[nH]c(=O)c1sccc12
110 nM	> 1000 nM	438 nM	Cc1cc(O)c(-c2ccc([C@@H](C)CN)cc2)c2c1[nH]c(=O)c1c(F)cccc12
187 nM	505 nM	242 nM	Cc1cc(O)c(-c2ccc([C@@H](C)N)cc2)c2c1[nH]c(=O)c1c(C)cccc12
360 nM	278 nM	357 nM	COc1cc(C)c2[nH]c(=O)c3ccccc3c2c1-c1ccc([C@@H](C)CN)cc1
128 nM	162 nM	396 nM	Cc1cc(O)c(-c2ccc([C@@H](C)N(C)C)cc2)c2c1[nH]c(=O)c1c(O)cccc12

Reference: ChEMBL document CHEMBL4382235, “Design, synthesis and biological evaluation of novel 1-phenyl phenanthridin-6(5H)-one derivatives as anti-tumor agents targeting TOPK” (Eur J Med Chem, 2019)
